The experiment concerns the target T1, BCL6 (Homo sapiens, UniProt P41182).
T1 construct: endogenous in cells; host or cells: T47D breast cancer epithelial cells
As to the kind of experiment: Immunofluorescence protocol for high content imaging of BCL6 (degradation) in T47D cells, 3 days compound treatment. In kind it is cell-based. Particulars: for Dmax: T47D, read-out: Mean Dmax (%)** category; for DC50: read-out: Mean DC50 (nM)* category. The procedure, abridged:
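Remaining BCL6 in breast cancer T47D cells was measured by high-content immunofluorescence imaging after 3 days of treatment with serially diluted compound (top 0.1 or 1 μM). Nuclei were stained with Hoechst and cells with CellMask.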

Structures are written as SMILES. Bounds are passed on as bounds.

As to `CNC(=O)COc1cc2cc(Nc3nc(N4CCC(O[C@H]5C[C@H](N6CCC7(CC6)CN(c6ccc8c(c6C)C(=O)N(C6CCC(=O)NC6=O)C8=O)C7)C5)CC4)ncc3Cl)ccc2n(C(C)C)c1=O` (some centres unmarked) [Compound 414, 2-({6-[(5-chloro-2-{4-[(1r,3r)-3-{2-[2-(2,6-dioxopiperidin-3-yl)-4-methyl-1,3-dioxo-2,3-dihydro-1H-isoindol-5-yl]-2,7-diazaspiro[3.5]nonan-7-yl}cyclobutoxy]piperidin-1-yl}pyrimidin-4-yl)amino]-2-oxo-1-(propan-2-yl)-1,2-dihydroquinolin-3-yl}oxy)-N-methylacetamide], the Dmax is ≥ 70% and the DC50 was < 10 nM.

With `CNC(=O)COc1cc2cc(Nc3nc(N4CCC(O[C@H]5C[C@H](N6CCN(c7ccc8c(n7)CN(C7CCC(=O)NC7=O)C8=O)[C@H](C)C6)C5)CC4)ncc3Cl)ccc2n(C(C)C)c1=O` (stereo partly drawn) [Compound 415, 2-({6-[(5-chloro-2-{4-[(1r,3r)-3-[(3R)-4-[6-(2,6-dioxopiperidin-3-yl)-5-oxo-5H,6H,7H-pyrrolo [3,4-b]pyridin-2-yl]-3-methylpiperazin-1-yl]cyclobutoxy]piperidin-1-yl}pyrimidin-4-yl)amino]-2-oxo-1-(propan-2-yl)-1,2-dihydroquinolin-3-yl}oxy)-N-methylacetamide], the “Mean Dmax (%)** category” value is given as “A (A >= 70)” and the DC50 is < 10 nM.

As to `CNC(=O)COc1cc2cc(Nc3nc(N4CCC(O[C@H]5C[C@H](N6CCN(c7ccc8c(c7C)CN(C7CCC(=O)NC7=O)C8=O)CC6)C5)CC4)ncc3Cl)ccc2n(C(C)C)c1=O` (some centres unmarked) [Compound 416, 2-({6-[(5-chloro-2-{4-[(1r,3r)-3-{4-[2-(2,6-dioxopiperidin-3-yl)-4-methyl-1-oxo-2,3-dihydro-1H-isoindol-5-yl]piperazin-1-yl}cyclobutoxy]piperidin-1-yl}pyrimidin-4-yl)amino]-2-oxo-1-(propan-2-yl)-1,2-dihydroquinolin-3-yl}oxy)-N-methylacetamide], the Dmax was ≥ 70% and the DC50 is < 10 nM.

`CNC(=O)COc1cc2cc(Nc3nc(N4CCC(O[C@H]5C[C@H](N6CCCN(c7ccc8c(c7C)C(=O)N(C7CCC(=O)NC7=O)C8=O)CC6)C5)CC4)ncc3Cl)ccc2n(C(C)C)c1=O` (some centres unmarked) [Compound 417, 2-({6-[(5-chloro-2-{4-[(1r,3r)-3-{4-[2-(2,6-dioxopiperidin-3-yl)-4-methyl-1,3-dioxo-2,3-dihydro-1H-isoindol-5-yl]-1,4-diazepan-1-yl}cyclobutoxy]piperidin-1-yl}pyrimidin-4-yl)amino]-2-oxo-1-(propan-2-yl)-1,2-dihydroquinolin-3-yl}oxy)-N-methylacetamide]: the Dmax was ≥ 70% and the DC50 is < 10 nM.

For `CNC(=O)COc1cc2cc(Nc3nc(N4CCC(O[C@H]5C[C@H](N6CC7(CCN(c8ccc9c(c8C)C(=O)N(C8CCC(=O)NC8=O)C9=O)CC7)C6)C5)CC4)ncc3Cl)ccc2n(C(C)C)c1=O` (some centres unmarked) [Compound 418, 2-({6-[(5-chloro-2-{4-[(1r,3r)-3-{7-[2-(2,6-dioxopiperidin-3-yl)-4-methyl-1,3-dioxo-2,3-dihydro-1H-isoindol-5-yl]-2,7-diazaspiro[3.5]nonan-2-yl}cyclobutoxy]piperidin-1-yl}pyrimidin-4-yl)amino]-2-oxo-1-(propan-2-yl)-1,2-dihydroquinolin-3-yl}oxy)-N-methylacetamide], the Dmax is ≥ 70% and the DC50 is < 10 nM.

`CNC(=O)COc1cc2c(F)c(Nc3nc(N4CCC(O[C@H]5C[C@H](N6CCC(c7ccc8c(c7C)C(=O)N(C7CCC(=O)NC7=O)C8=O)CC6)C5)CC4)ncc3Cl)ccc2n(C(C)C)c1=O` (some centres unmarked) [Compound 419, 2-({6-[(5-chloro-2-{4-[(1r,3r)-3-{4-[2-(2,6-dioxopiperidin-3-yl)-4-methyl-1,3-dioxo-2,3-dihydro-1H-isoindol-5-yl]piperidin-1-yl}cyclobutoxy]piperidin-1-yl}pyrimidin-4-yl)amino]-5-fluoro-2-oxo-1-(propan-2-yl)-1,2-dihydroquinolin-3-yl}oxy)-N-methylacetamide]: the Dmax is ≥ 70% and the half-maximal degradation concentration (DC50) is < 10 nM.

As for `CNC(=O)COc1cc2cc(Nc3nc(N4CCC(O[C@H]5C[C@H](N6CC7(CN(c8ccc9c(c8C)C(=O)N(C8CCC(=O)NC8=O)C9=O)C7)C6)C5)CC4)ncc3Cl)ccc2n(C(C)C)c1=O` (some centres unmarked) [Compound 420, 2-({6-[(5-chloro-2-{4-[(1r,3r)-3-{6-[2-(2,6-dioxopiperidin-3-yl)-4-methyl-1,3-dioxo-2,3-dihydro-1H-isoindol-5-yl]-2,6-diazaspiro[3.3]heptan-2-yl}cyclobutoxy]piperidin-1-yl}pyrimidin-4-yl)amino]-2-oxo-1-(propan-2-yl)-1,2-dihydroquinolin-3-yl}oxy)-N-methylacetamide], the Dmax was ≥ 70% and the half-maximal degradation concentration (DC50) is < 10 nM.

In the case of `CNC(=O)COc1cc2c(F)c(Nc3nc(N4CCC(CN5CCC6(CC5)CC5(CN(c7ccc8c(c7)CN(C7CCC(=O)NC7=O)C8=O)C5)C6)CC4)ncc3Cl)ccc2n(C(C)C)c1=O` (centres unmarked) [Compound 421, 2-{[6-({5-chloro-2-[4-({2-[2-(2,6-dioxopiperidin-3-yl)-1-oxo-2,3-dihydro-1H-isoindol-5-yl]-2,9-diazadispiro [3.1.56.14]dodecan-9-yl}methyl)piperidin-1-yl]pyrimidin-4-yl}amino)-5-fluoro-2-oxo-1-(propan-2-yl)-1,2-dihydroquinolin-3-yl]oxy}-N-methylacetamide], the Dmax is ≥ 70% and the DC50 was < 10 nM.

With `CNC(=O)COc1cc2cc(Nc3nc(N4CCC(O[C@H]5C[C@H](N6CCN(C7CN(c8ccc9c(c8F)CN(C8CCC(=O)NC8=O)C9=O)C7)CC6)C5)CC4)ncc3Cl)ccc2n(C(C)C)c1=O` (some centres unmarked) [Compound 422, 2-({6-[(5-chloro-2-{4-[(1r,3r)-3-(4-{1-[2-(2,6-dioxopiperidin-3-yl)-4-fluoro-1-oxo-2,3-dihydro-1H-isoindol-5-yl]azetidin-3-yl}piperazin-1-yl)cyclobutoxy]piperidin-1-yl}pyrimidin-4-yl)amino]-2-oxo-1-(propan-2-yl)-1,2-dihydroquinolin-3-yl}oxy)-N-methylacetamide], the greatest degradation seen (Dmax) is ≥ 70% and the DC50 is < 10 nM.

For the compound `CNC(=O)COc1cc2cc(Nc3nc(N4CCC(O[C@H]5C[C@H](N6CCN(c7cc8c(cc7OC)C(=O)N(C7CCC(=O)NC7=O)C8=O)CC6)C5)CC4)ncc3Cl)ccc2n(C(C)C)c1=O` (some centres unmarked) [Compound 423, 2-({6-[(5-chloro-2-{4-[(1r,3r)-3-{4-[2-(2,6-dioxopiperidin-3-yl)-6-methoxy-1,3-dioxo-2,3-dihydro-1H-isoindol-5-yl]piperazin-1-yl}cyclobutoxy]piperidin-1-yl}pyrimidin-4-yl)amino]-2-oxo-1-(propan-2-yl)-1,2-dihydroquinolin-3-yl}oxy)-N-methylacetamide], the greatest degradation seen (Dmax) was ≥ 70% and the half-maximal degradation concentration (DC50) was < 10 nM.

With `CCC(C)n1c(=O)c(OCC(=O)NC)cc2cc(Nc3nc(N4CCC(O[C@H]5C[C@H](N6CCC(c7ccc8c(c7F)CN(C7CCC(=O)NC7=O)C8=O)CC6)C5)CC4)ncc3Cl)ccc21` (some centres unmarked) [Compound 424, 2-{[1-(butan-2-yl)-6-[(5-chloro-2-{4-[(1r,3r)-3-{4-[2-(2,6-dioxopiperidin-3-yl)-4-fluoro-1-oxo-2,3-dihydro-1H-isoindol-5-yl]piperidin-1-yl}cyclobutoxy]piperidin-1-yl}pyrimidin-4-yl)amino]-2-oxo-1,2-dihydroquinolin-3-yl]oxy}-N-methylacetamide], the greatest degradation seen (Dmax) was ≥ 70% and the DC50 is < 10 nM.

In the case of `CNC(=O)COc1cc2cc(Nc3nc(N4CCC(O[C@H]5C[C@H](N6CCC(c7ccc8c(c7F)CN(C7CCC(=O)NC7=O)C8=O)CC6)C5)CC4)ncc3Cl)ccc2n(CC(C)C)c1=O` (some centres unmarked) [Compound 425, 2-({6-[(5-chloro-2-{4-[(1r,3r)-3-{4-[2-(2,6-dioxopiperidin-3-yl)-4-fluoro-1-oxo-2,3-dihydro-1H-isoindol-5-yl]piperidin-1-yl}cyclobutoxy]piperidin-1-yl}pyrimidin-4-yl)amino]-1-(2-methylpropyl)-2-oxo-1,2-dihydroquinolin-3-yl}oxy)-N-methylacetamide], the greatest degradation seen (Dmax) was ≥ 70% and the half-maximal degradation concentration (DC50) was < 10 nM.

Consider `CNC(=O)COc1cc2cc(Nc3nc(N4CCC(O[C@H]5C[C@H](N6CC=C(c7ccc8c(c7F)CN(C7CCC(=O)NC7=O)C8=O)CC6)C5)CC4)ncc3Cl)ccc2n(C(C)C)c1=O` (some centres unmarked) [Compound 426, 2-({6-[(5-chloro-2-{4-[(1r,3r)-3-{4-[2-(2,6-dioxopiperidin-3-yl)-4-fluoro-1-oxo-2,3-dihydro-1H-isoindol-5-yl]-1,2,3,6-tetrahydropyridin-1-yl}cyclobutoxy]piperidin-1-yl}pyrimidin-4-yl)amino]-2-oxo-1-(propan-2-yl)-1,2-dihydroquinolin-3-yl}oxy)-N-methylacetamide], for which the maximal degradation (Dmax) is ≥ 70% and the DC50 was < 10 nM.

Take `CNC(=O)COc1cc2cc(Nc3nc(N4CCC(CN5CCC6(CC5)CC5(CN(c7ccc8c(c7F)CN(C7CCC(=O)NC7=O)C8=O)C5)C6)CC4)ncc3Cl)ccc2n(C(C)C)c1=O` (centres unmarked) [Compound 427]: the maximal degradation (Dmax) is ≥ 70% and the DC50 was < 10 nM.

In the case of `CNC(=O)COc1cc2cc(Nc3nc(N4CCC(O[C@H]5C[C@H](N6CC=C(c7ccc8c(c7Cl)CN([C@H]7CCC(=O)NC7=O)C8=O)CC6)C5)CC4)ncc3Cl)ccc2n(C(C)C)c1=O` [Compound 428], the Dmax was ≥ 70% and the half-maximal degradation concentration (DC50) is < 10 nM.

Consider `CNC(=O)COc1cc2cc(Nc3nc(N4CCC(O[C@H]5C[C@H](N6CC=C(c7ccc8c(c7Cl)CN(C7CCC(=O)NC7=O)C8=O)CC6)C5)CC4)ncc3Cl)ccc2n(C(C)C)c1=O` (some centres unmarked) [Compound 429, 2-({6-[(5-chloro-2-{4-[(1r,3r)-3-{4-[4-chloro-2-(2,6-dioxopiperidin-3-yl)-1-oxo-2,3-dihydro-1H-isoindol-5-yl]-1,2,3,6-tetrahydropyridin-1-yl}cyclobutoxy]piperidin-1-yl}pyrimidin-4-yl)amino]-2-oxo-1-(propan-2-yl)-1,2-dihydroquinolin-3-yl}oxy)-N-methylacetamide], for which the Dmax was ≥ 70% and the DC50 is < 10 nM.

Values taken from patent US11986532B2 (Arvinas Operations, Inc., priority 2021, dated 2024).
